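Values below derive from 48-hour exposures of cells grown in 96-well plates, with endpoints linearly interpolated between the two concentrations bracketing the appropriate inhibition level. GI50 = concentration required for 50% inhibition of growth. The concentration for full growth arrest is given as TGI.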
Key:
Assay in all cases: NCI anticancer screen, dose series, 48 h
UO-31 renal = test system: UO-31 renal
M19-MEL melanoma = test system: M19-MEL melanoma
M14 melanoma = test system: M14 melanoma
SK-MEL-28 melanoma = test system: SK-MEL-28 melanoma
SF-539 CNS = test system: SF-539 CNS
HL-60(TB) leukemia = test system: HL-60(TB) leukemia
UACC-62 melanoma = test system: UACC-62 melanoma
SR leukemia = test system: SR leukemia
DMS 273 small cell lung = test system: DMS 273 small cell lung
HOP-62 NSCLC = test system: HOP-62 NSCLC
MALME-3M melanoma = test system: MALME-3M melanoma
786-0 renal = test system: 786-0 renal
CAKI-1 renal = test system: CAKI-1 renal
RPMI-8226 leukemia = test system: RPMI-8226 leukemia
NCI-H522 lung = test system: NCI-H522 lung
A498 renal = test system: A498 renal
HCT-116 colon = test system: HCT-116 colon
HOP-18 NSCLC = test system: HOP-18 NSCLC
SNB-75 CNS = test system: SNB-75 CNS
IGROV1 ovarian = test system: IGROV1 ovarian
A549 NSCLC = test system: A549 NSCLC
K-562 leukemia = test system: K-562 leukemia
SW-620 colon = test system: SW-620 colon
NCI-H23 lung = test system: NCI-H23 lung
DLD-1 colon = test system: DLD-1 colon
ACHN renal = test system: ACHN renal
HOP-92 NSCLC = test system: HOP-92 NSCLC
SNB-19 CNS = test system: SNB-19 CNS
TK-10 renal = test system: TK-10 renal
SNB-78 CNS = test system: SNB-78 CNS
MOLT-4 leukemia = test system: MOLT-4 leukemia
SK-MEL-5 melanoma = test system: SK-MEL-5 melanoma
CCRF-CEM leukemia = test system: CCRF-CEM leukemia
UACC-257 melanoma = test system: UACC-257 melanoma
OVCAR-4 ovarian = test system: OVCAR-4 ovarian
SN12C renal = test system: SN12C renal
EKVX NSCLC = test system: EKVX NSCLC
HCT-15 colon = test system: HCT-15 colon
LXFL 529 NSCLC = test system: LXFL 529 NSCLC
SF-295 CNS = test system: SF-295 CNS
HCC-2998 colon = test system: HCC-2998 colon
LOX IMVI melanoma = test system: LOX IMVI melanoma
SK-MEL-2 melanoma = test system: SK-MEL-2 melanoma
HT29 colon = test system: HT29 colon
KM20L2 colon = test system: KM20L2 colon
OVCAR-3 ovarian = test system: OVCAR-3 ovarian
SK-OV-3 ovarian = test system: SK-OV-3 ovarian
U251 CNS = test system: U251 CNS
OVCAR-5 ovarian = test system: OVCAR-5 ovarian
OVCAR-8 ovarian = test system: OVCAR-8 ovarian
RXF 393 renal = test system: RXF 393 renal
NCI-H460 lung = test system: NCI-H460 lung
KM12 colon = test system: KM12 colon
COLO 205 colon = test system: COLO 205 colon
DMS 114 small cell lung = test system: DMS 114 small cell lung
SF-268 CNS = test system: SF-268 CNS
NCI-H226 lung = test system: NCI-H226 lung

SMILES: O=C1C(C(Nc2ccccc2)c2ccccc2)=C([O-])c2ccccc21.O=C1C(C(Nc2ccccc2)c2ccccc2)=C([O-])c2ccccc21.[Co+2] (centres undefined)
- GI50 (UO-31 renal): 2.69 µM
- TGI (UO-31 renal): 53.8 µM
- GI50 (M19-MEL melanoma): 15.2 µM
- TGI (M19-MEL melanoma): > 100 µM
- GI50 (M14 melanoma): 3.86 µM
- TGI (M14 melanoma): > 100 µM
- GI50 (SK-MEL-28 melanoma): 5.55 µM
- TGI (SK-MEL-28 melanoma): > 100 µM
- GI50 (SF-539 CNS): 3.3 µM
- TGI (SF-539 CNS): > 100 µM
- GI50 (HL-60(TB) leukemia): 3.72 µM
- TGI (HL-60(TB) leukemia): > 100 µM
- GI50 (UACC-62 melanoma): 5.45 µM
- TGI (UACC-62 melanoma): > 100 µM
- GI50 (SR leukemia): 6.07 µM
- TGI (SR leukemia): > 100 µM
- GI50 (DMS 273 small cell lung): 4.08 µM
- TGI (DMS 273 small cell lung): > 100 µM
- GI50 (HOP-62 NSCLC): > 100 µM
- TGI (HOP-62 NSCLC): > 100 µM
- GI50 (MALME-3M melanoma): 5.48 µM
- TGI (MALME-3M melanoma): > 100 µM
- GI50 (786-0 renal): 7.11 µM
- TGI (786-0 renal): > 100 µM
- GI50 (CAKI-1 renal): 18.7 µM
- TGI (CAKI-1 renal): > 100 µM
- GI50 (RPMI-8226 leukemia): 2.8 µM
- TGI (RPMI-8226 leukemia): > 100 µM
- GI50 (NCI-H522 lung): 2.31 µM
- TGI (NCI-H522 lung): 5.43 µM
- GI50 (A498 renal): 5.13 µM
- TGI (A498 renal): > 100 µM
- GI50 (HCT-116 colon): 3.15 µM
- TGI (HCT-116 colon): > 100 µM
- GI50 (HOP-18 NSCLC): 11.5 µM
- TGI (HOP-18 NSCLC): > 100 µM
- GI50 (SNB-75 CNS): 4.49 µM
- TGI (SNB-75 CNS): 79.8 µM
- GI50 (IGROV1 ovarian): 5.6 µM
- TGI (IGROV1 ovarian): > 100 µM
- GI50 (A549 NSCLC): 4.2 µM
- TGI (A549 NSCLC): > 100 µM
- GI50 (K-562 leukemia): 3.2 µM
- TGI (K-562 leukemia): > 100 µM
- GI50 (SW-620 colon): 4.75 µM
- TGI (SW-620 colon): > 100 µM
- GI50 (NCI-H23 lung): 4.3 µM
- TGI (NCI-H23 lung): > 100 µM
- GI50 (DLD-1 colon): 4.02 µM
- TGI (DLD-1 colon): > 100 µM
- GI50 (ACHN renal): 6.62 µM
- TGI (ACHN renal): > 100 µM
- GI50 (HOP-92 NSCLC): 6.92 µM
- TGI (HOP-92 NSCLC): > 100 µM
- GI50 (SNB-19 CNS): > 100 µM
- TGI (SNB-19 CNS): > 100 µM
- GI50 (TK-10 renal): 5.48 µM
- TGI (TK-10 renal): 86 µM
- GI50 (SNB-78 CNS): > 100 µM
- TGI (SNB-78 CNS): > 100 µM
- GI50 (MOLT-4 leukemia): 4.04 µM
- TGI (MOLT-4 leukemia): > 100 µM
- GI50 (SK-MEL-5 melanoma): 3.78 µM
- TGI (SK-MEL-5 melanoma): > 100 µM
- GI50 (CCRF-CEM leukemia): 4.96 µM
- TGI (CCRF-CEM leukemia): > 100 µM
- GI50 (UACC-257 melanoma): 5.04 µM
- TGI (UACC-257 melanoma): 46.4 µM
- GI50 (OVCAR-4 ovarian): 3.38 µM
- TGI (OVCAR-4 ovarian): 9.92 µM

SMILES: COC1CC(OC)C2OC(c3ccccc3)OCC2O1 (centres undefined)
- TGI (SN12C renal): > 100 µM
- TGI (EKVX NSCLC): > 100 µM
- TGI (UO-31 renal): > 100 µM
- TGI (HCT-15 colon): > 100 µM
- TGI (LXFL 529 NSCLC): > 100 µM
- TGI (M19-MEL melanoma): > 100 µM
- TGI (M14 melanoma): > 100 µM
- TGI (SK-MEL-28 melanoma): > 100 µM
- TGI (SF-539 CNS): > 100 µM
- TGI (HL-60(TB) leukemia): > 100 µM
- TGI (UACC-62 melanoma): > 100 µM
- TGI (SF-295 CNS): > 100 µM
- TGI (HCC-2998 colon): > 100 µM
- TGI (LOX IMVI melanoma): > 100 µM
- TGI (SK-MEL-2 melanoma): > 100 µM
- TGI (SR leukemia): > 100 µM
- TGI (HOP-62 NSCLC): > 100 µM
- TGI (MALME-3M melanoma): > 100 µM
- TGI (786-0 renal): > 100 µM
- TGI (HT29 colon): > 100 µM
- TGI (KM20L2 colon): > 100 µM
- TGI (OVCAR-3 ovarian): > 100 µM
- TGI (SK-OV-3 ovarian): > 100 µM
- TGI (NCI-H522 lung): > 100 µM
- TGI (U251 CNS): > 100 µM
- TGI (HCT-116 colon): > 100 µM
- TGI (HOP-18 NSCLC): > 100 µM
- TGI (SNB-75 CNS): > 100 µM
- TGI (OVCAR-5 ovarian): > 100 µM
- TGI (IGROV1 ovarian): > 100 µM
- TGI (OVCAR-8 ovarian): > 100 µM
- TGI (A549 NSCLC): > 100 µM
- TGI (K-562 leukemia): > 100 µM
- TGI (SW-620 colon): > 100 µM
- TGI (NCI-H23 lung): > 100 µM
- TGI (DLD-1 colon): > 100 µM
- TGI (ACHN renal): > 100 µM
- TGI (TK-10 renal): > 100 µM
- TGI (SNB-78 CNS): > 100 µM
- TGI (RXF 393 renal): > 100 µM
- TGI (NCI-H460 lung): > 100 µM
- TGI (KM12 colon): > 100 µM
- TGI (MOLT-4 leukemia): > 100 µM
- TGI (SK-MEL-5 melanoma): > 100 µM
- TGI (CCRF-CEM leukemia): > 100 µM
- TGI (UACC-257 melanoma): > 100 µM

SMILES: CCOC(=O)[C@@]12C(C)=CC(=O)O[C@]1(C)C[C@H]2C#N
- TGI (SN12C renal): > 100 µM
- TGI (COLO 205 colon): > 100 µM
- TGI (DMS 114 small cell lung): > 100 µM
- TGI (EKVX NSCLC): > 100 µM
- TGI (SF-268 CNS): > 100 µM
- TGI (UO-31 renal): > 100 µM
- TGI (HCT-15 colon): > 100 µM
- TGI (LXFL 529 NSCLC): > 100 µM
- TGI (M19-MEL melanoma): > 100 µM
- TGI (M14 melanoma): > 100 µM
- TGI (SK-MEL-28 melanoma): > 100 µM
- TGI (SF-539 CNS): > 100 µM
- TGI (HL-60(TB) leukemia): > 100 µM
- TGI (UACC-62 melanoma): > 100 µM
- TGI (SF-295 CNS): > 100 µM
- TGI (HCC-2998 colon): > 100 µM
- TGI (LOX IMVI melanoma): > 100 µM
- TGI (SK-MEL-2 melanoma): > 100 µM
- TGI (DMS 273 small cell lung): > 100 µM
- TGI (HOP-62 NSCLC): > 100 µM
- TGI (NCI-H226 lung): > 100 µM
- TGI (MALME-3M melanoma): > 100 µM
- TGI (786-0 renal): > 100 µM
- TGI (HT29 colon): > 100 µM
- TGI (KM20L2 colon): > 100 µM
- TGI (OVCAR-3 ovarian): > 100 µM
- TGI (SK-OV-3 ovarian): > 100 µM
- TGI (RPMI-8226 leukemia): > 100 µM
- TGI (A498 renal): > 100 µM
- TGI (U251 CNS): > 100 µM
- TGI (HCT-116 colon): > 100 µM
- TGI (HOP-18 NSCLC): > 100 µM
- TGI (SNB-75 CNS): > 100 µM
- TGI (IGROV1 ovarian): > 100 µM
- TGI (OVCAR-8 ovarian): > 100 µM
- TGI (A549 NSCLC): > 100 µM
- TGI (K-562 leukemia): > 100 µM
- TGI (SW-620 colon): > 100 µM
- TGI (NCI-H23 lung): > 100 µM
- TGI (DLD-1 colon): > 100 µM
- TGI (ACHN renal): > 100 µM
- TGI (HOP-92 NSCLC): > 100 µM
- TGI (SNB-19 CNS): > 100 µM
- TGI (TK-10 renal): > 100 µM
- TGI (SNB-78 CNS): > 100 µM
- TGI (RXF 393 renal): > 100 µM
- TGI (NCI-H460 lung): > 100 µM
- TGI (KM12 colon): > 100 µM
- TGI (MOLT-4 leukemia): > 100 µM
- TGI (SK-MEL-5 melanoma): > 100 µM
- TGI (CCRF-CEM leukemia): > 100 µM
- TGI (UACC-257 melanoma): > 100 µM
- TGI (OVCAR-4 ovarian): > 100 µM

Reference: PubChem BioAssay (NCI)
